This is an account of results in patent US20110065675A1, “AZO DYE RELATED SMALL MOLECULE MODULATORS OF PROTEIN-PROTEIN INTERACTIONS” (University of Miami, priority 2008, published 2011).

Read-outs that look alike come from different tables or passages of the source.

Assay [1] addresses P2 (ATP/UTP purine receptor). Particulars: read-out: IC50, P2 antagonist; cited from earlier work.
In the next assay the target is T1, human CD40/CD154 (Homo sapiens, UniProt P29965).
T1 construct: CD154 (soluble human, FLAG-tagged, recombinant from Alexis Biochemicals; MW=18 kDa); purchased Alexis Biochemicals
T1 sequence (P29965 113-261 limits assumed): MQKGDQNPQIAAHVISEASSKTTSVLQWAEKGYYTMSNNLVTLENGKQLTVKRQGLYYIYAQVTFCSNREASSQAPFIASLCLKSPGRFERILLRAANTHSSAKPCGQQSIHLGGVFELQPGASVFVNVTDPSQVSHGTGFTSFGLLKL
Nature of the assay: Human CD40/CD154 binding inhibition assay (cell-free, plate-based). Here is the method: A 96-well plate-based cell-free in vitro binding inhibition assay, which is a modification of an assay described in U.S. Pat. No. 7,173,046, incorporated by reference in its entirety, has been developed and used for activity screening. Briefly, CD40 is coated at a preselected concentration, and binding of (FLAG-tagged) CD154 is measured by reacting with secondary antibody and using TMB liquid substrate system as a substrate for horseradish peroxidase for reading at 450 nm. The detailed procedure is as follows: Microtiter plates (Nunc F MaxiSorp) were coated with […] of CD40: Fc (human:Fc human, recombinant from Alexis Biochemicals; MW=54 kDa) diluted in PBS pH 7.2 at a preselected concentration of 0.3125 μg/mL. Plates were covered with plate sealer and stored overnight at 4° C. The liquid was removed from the plates and blotted dry. Plates were blocked by washing once with approx. 300 μL/well of Blocking Solution (PBS pH 7.2, 0.05% Tween-20, 1% BSA) and incubated with the same solution for 1 hour at room temperature (RT) or at 4° C. overnight. Coated plates were washed three times with Washing Solution (PBS pH 7.4, 0.05% Tween-20) and blotted dry. A preselected dilution of CD154 (soluble human, FLAG-tagged, recombinant from Alexis Biochemicals; MW=18 kDa) of 0.0087500875 μg/mL range was prepared in 100 mM HEPES, 0.005% BSA pH 7.2. Binding was carried out by adding 100 μL of this CD154 dilution/well and incubating at RT in the presence of test compounds (or blank as negative control). After incubation, the plates were washed with Washing Solution and blotted dry. Bound CD154 was detected with 200 μL/well of secondary antibody mAb ANTI-FLAG M2—Peroxidase Conjugate (anti-FLAG M2-peroxidase HRP conjugate; Sigma-Aldrich) diluted 1:40,000 in Washing Solution. After incubation, the plates were washed and blotted dry. 200 μL/well of the HR-Peroxidase substrate TMB (3,3′,5,5′-tetramethylbenzidine; Sigma-Aldrich) were added, and the plates were incubated for approximately 30 minutes in the dark. The reaction was stopped with 0.5 M H2SO4 and read at 450 nm. All conditions were tested in at least three independent experiments in duplicate or triplicate per plates. Data were normalized and fitted with standard log inhibitor vs. response models using GraphPad Prism 5 to establish median inhibitory ICso values.
A representative result using the monoclonal anti-human CD154 antibody (R&D Systems, monoclonal anti-human CD40 ligand/TNFSF5 antibody, MAB617; MW≈150 kDa used) as positive control is shown in FIG. 1.
Binding inhibition assays with this system provided consistent and well-reproducible results, as FIG. 1 (bottom), focusing on the concentration range of their activities, illustrates. […] The effect of DMSO, which was used as the diluting solvent for the non-water-soluble compounds and is a standard solvent in HTS assays, on the integrity of the assay has been examined. DMSO concentrations above 10% interfere with the binding assay, but concentrations below 3% have no effect. […] Because 5 or 10 mM stock solutions were used, all IC50 values below 250 μM can be considered as unaffected by DMSO.

Setting [2] is: cell-free binding, read-out: Human CD40/CD154 IC50.

As for `Cc1ccc(C(=O)Nc2ccc(S(=O)(=O)O)c3cc(S(=O)(=O)O)cc(S(=O)(=O)O)c23)cc1NC(=O)c1cccc(NC(=O)Nc2cccc(C(=O)Nc3cc(C(=O)Nc4ccc(S(=O)(=O)O)c5cc(S(=O)(=O)O)cc(S(=O)(=O)O)c45)ccc3C)c2)c1` [Suramin, reference compound], the IC50 in assay [1] was 5 to 10 µM; at human CD40/CD154 (setting [2]) it was 14.6 µM; at human CD40/CD154 (cell-free binding, read-out: Human CD40/CD154 IC50 (ug/mL) (converted)), 14 µM.

`O=C([O-])C1=NN(c2ccc(S(=O)(=O)[O-])cc2)C(=O)C1N=Nc1ccc(S(=O)(=O)[O-])cc1.[Na+].[Na+].[Na+]` (stereo not shown) [Tartrazine (FD&C yellow 5), Tartrazine, reference compound]: the “Activity in the human CD40/CD154 binding assay” value at human CD40/CD154 is “inactive”. The “Human CD40/CD154 IC50” value on human CD40/CD154 (cell-free binding) was >2000 µg/mL. In addition, at human CD40/CD154 (setting [2]), the IC50 was > 2000 µM. Moreover, the “Human CD40/CD154 log IC50” value at human CD40/CD154 (log of IC50, cell-free binding) was >−3.0.
